Measurements reported in US20220331274A1, “METHODS OF TREATING CANCER” (Inspirna, Inc., priority 2019, published 2022).

Legend:
[1] = test system: ApoE; test: ApoE gene expression induction in hPBMCs; type: cell-based, human; conditions: compared to control cells
[2] = biological target: OAT3 (Homo sapiens, UniProt Q8TCC7); test: transporter inhibition in vitro; type: in vitro ADME
[3] = biological target: CYP3A4 (Homo sapiens, UniProt P08684); test: in vitro CYP metabolism; type: in vitro ADME
CYP3A4, sequence (P08684 whole entry): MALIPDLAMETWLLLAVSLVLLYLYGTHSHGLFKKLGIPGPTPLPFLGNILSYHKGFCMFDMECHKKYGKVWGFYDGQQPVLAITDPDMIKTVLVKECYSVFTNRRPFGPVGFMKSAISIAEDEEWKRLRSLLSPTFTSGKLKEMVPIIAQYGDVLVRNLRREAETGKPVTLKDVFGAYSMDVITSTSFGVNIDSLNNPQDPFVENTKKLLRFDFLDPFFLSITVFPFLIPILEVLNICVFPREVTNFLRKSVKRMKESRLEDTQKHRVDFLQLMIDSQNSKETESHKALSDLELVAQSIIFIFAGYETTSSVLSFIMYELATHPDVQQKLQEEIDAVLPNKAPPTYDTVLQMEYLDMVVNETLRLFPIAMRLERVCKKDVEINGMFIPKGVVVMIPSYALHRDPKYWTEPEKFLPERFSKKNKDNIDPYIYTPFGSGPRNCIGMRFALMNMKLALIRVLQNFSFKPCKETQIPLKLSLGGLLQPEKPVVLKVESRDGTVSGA

[4] = biological target: OCT2 (Homo sapiens, UniProt O15244); test: transporter inhibition in vitro; type: in vitro ADME
OCT2, sequence (O15244 whole entry): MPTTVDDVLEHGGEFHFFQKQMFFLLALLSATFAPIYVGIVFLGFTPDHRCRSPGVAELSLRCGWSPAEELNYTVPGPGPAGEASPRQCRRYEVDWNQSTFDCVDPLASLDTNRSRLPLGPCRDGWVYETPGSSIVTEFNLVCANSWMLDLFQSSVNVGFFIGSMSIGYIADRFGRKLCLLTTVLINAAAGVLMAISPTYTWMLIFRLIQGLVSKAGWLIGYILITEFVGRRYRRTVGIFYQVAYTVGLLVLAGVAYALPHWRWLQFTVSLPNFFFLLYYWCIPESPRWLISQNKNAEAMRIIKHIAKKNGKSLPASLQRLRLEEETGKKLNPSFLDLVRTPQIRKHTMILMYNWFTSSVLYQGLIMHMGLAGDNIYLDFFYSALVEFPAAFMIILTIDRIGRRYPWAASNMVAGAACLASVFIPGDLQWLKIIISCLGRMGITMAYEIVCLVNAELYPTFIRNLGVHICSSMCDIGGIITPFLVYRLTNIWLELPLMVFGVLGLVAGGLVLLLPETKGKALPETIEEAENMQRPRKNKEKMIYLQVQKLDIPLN

[5] = biological target: BCRP (Homo sapiens, UniProt Q9UNQ0); test: efflux transporter inhibition in vitro; type: in vitro ADME; conditions: read-out: inhibition of BCRP transport
BCRP, sequence (Q9UNQ0 whole entry, species assumed): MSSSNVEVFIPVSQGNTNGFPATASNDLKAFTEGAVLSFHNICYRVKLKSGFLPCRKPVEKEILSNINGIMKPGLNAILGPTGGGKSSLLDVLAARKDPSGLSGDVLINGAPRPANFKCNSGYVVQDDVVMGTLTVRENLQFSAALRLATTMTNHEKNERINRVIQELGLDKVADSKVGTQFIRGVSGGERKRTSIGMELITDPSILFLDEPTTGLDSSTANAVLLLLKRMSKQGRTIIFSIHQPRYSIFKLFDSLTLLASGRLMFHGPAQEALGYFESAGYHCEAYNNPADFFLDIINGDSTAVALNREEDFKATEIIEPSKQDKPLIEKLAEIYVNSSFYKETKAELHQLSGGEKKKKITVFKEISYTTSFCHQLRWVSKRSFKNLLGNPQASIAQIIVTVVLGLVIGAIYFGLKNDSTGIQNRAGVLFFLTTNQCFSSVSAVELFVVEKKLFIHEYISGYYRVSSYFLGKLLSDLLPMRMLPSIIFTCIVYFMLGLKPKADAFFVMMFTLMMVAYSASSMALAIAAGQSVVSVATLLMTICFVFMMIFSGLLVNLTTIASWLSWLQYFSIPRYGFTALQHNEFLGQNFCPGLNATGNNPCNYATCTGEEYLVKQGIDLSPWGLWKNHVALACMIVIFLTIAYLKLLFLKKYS

[6] = biological target: CYP2J2 (Homo sapiens, UniProt P51589); test: in vitro CYP metabolism; type: in vitro ADME
CYP2J2, sequence (P51589 whole entry): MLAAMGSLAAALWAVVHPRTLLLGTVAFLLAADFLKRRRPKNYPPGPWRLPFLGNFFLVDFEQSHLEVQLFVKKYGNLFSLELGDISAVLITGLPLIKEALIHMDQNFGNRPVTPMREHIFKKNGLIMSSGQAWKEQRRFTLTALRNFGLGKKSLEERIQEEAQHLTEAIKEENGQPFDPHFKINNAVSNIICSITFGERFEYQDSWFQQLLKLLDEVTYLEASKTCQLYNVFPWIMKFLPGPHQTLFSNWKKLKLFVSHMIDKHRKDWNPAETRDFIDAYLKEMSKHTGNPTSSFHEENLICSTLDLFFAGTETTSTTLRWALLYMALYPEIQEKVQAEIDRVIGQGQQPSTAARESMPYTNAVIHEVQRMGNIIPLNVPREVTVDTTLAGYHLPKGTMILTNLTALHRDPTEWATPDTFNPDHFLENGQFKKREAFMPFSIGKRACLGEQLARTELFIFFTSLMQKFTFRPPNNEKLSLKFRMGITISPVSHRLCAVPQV

[7] = Example 1: adverse event profile of full and reduced regimens with docetaxel; type: in vivo
Experimental: Protocol: Three subjects was administered Regimen 1 (Full): 35 mg/m^2 of docetaxel on days 1, 8, and 15 of every 28-day cycle and 80 mg of 2-[3-[(3R)-3-[[2-chloro-3-(trifluoromethyl)phenyl]methyl-(2,2-diphenylethyl)amino]butoxy]phenyl]acetic acid twice per day daily throughout treatment. Seven subjects was administered Regimen 2 (Reduced): 28 mg/m^2 of docetaxel on days 1, 8, and 15 of every 28-day cycle and 80 mg of 2-[3-[(3R)-3-[[2-chloro-3-(trifluoromethyl)phenyl]methyl-(2,2-diphenylethyl)amino]butoxy]phenyl]acetic acid twice per day for five continuous days followed by a 2 day rest period throughout treatment. One subject that was administered Regimen 2 received 35 mg/m^2 of docetaxel on days 1 and 80 mg of 2-[3-[(3R)-3-[[2-chloro-3-(trifluoromethyl)phenyl]methyl-(2,2-diphenylethyl)amino]butoxy]phenyl]acetic acid twice per day for the first seven days of treatment prior to switching to the reduced treatment schedule for the remainder of the 28-day cycle.

[8] = test system: Xenograft A549; test: Example 2: Xenograft A549 mice, tumor volume; type: in vivo
Experimental: Protocol: Five groups of Xenograft A549 mice were treated and tumor volume tracked for twenty-two days. Group 01 was administered 0.9% Saline, 0 mg/kg cisplatin, Corn Oil, and 0 mg/kg 2-[3-[(3R)-3-[[2-chloro-3-(trifluoromethyl)phenyl]methyl-(2,2-diphenylethyl)amino]butoxy]phenyl]acetic acid; Group 02 was administered 2 mg/kg Cisplatin, Corn Oil, and 0 mg/kg 2-[3-[(3R)-3-[[2-chloro-3-(trifluoromethyl)phenyl]methyl-(2,2-diphenylethyl)amino]butoxy]phenyl]acetic acid; Group 03 was administered 0.9% Saline, 0 mg/kg cisplatin, and 50 mg/kg 2-[3-[(3R)-3-[[2-chloro-3-(trifluoromethyl)phenyl]methyl-(2,2-diphenylethyl)amino]butoxy]phenyl]acetic acid; Group 04 was administered 2 mg/kg cisplatin and 50 mg/kg 2-[3-[(3R)-3-[[2-chloro-3-(trifluoromethyl)phenyl]methyl-(2,2-diphenylethyl)amino]butoxy]phenyl]acetic acid twice per day daily for the entire treatment period; and Group 05 was administered 2 mg/kg cisplatin and 50 mg/kg 2-[3-[(3R)-3-[[2-chloro-3-(trifluoromethyl)phenyl]methyl-(2,2-diphenylethyl)amino]butoxy]phenyl]acetic acid twice per day for five continuous days followed by two days without for the entire treatment period.

[9] = neurobehavioral functional observation battery (FOB) and respiratory evaluations in rats; type: in vivo
[10] = test system: melanoma xenograft; test: melanoma xenograft study in non-obese diabetic-severe combined immunodeficiency mice; type: in vivo; conditions: 25 mg/kg
[11] = Regimen 1 (Full): 80 mg twice per day daily + docetaxel 35 mg/m^2, 3 cycles
[12] = Regimen 2 (Reduced): 80 mg twice per day 5 days then 2 day rest + docetaxel 28 mg/m^2, 20 cycles

OAT3, sequence (Q8TCC7 whole entry): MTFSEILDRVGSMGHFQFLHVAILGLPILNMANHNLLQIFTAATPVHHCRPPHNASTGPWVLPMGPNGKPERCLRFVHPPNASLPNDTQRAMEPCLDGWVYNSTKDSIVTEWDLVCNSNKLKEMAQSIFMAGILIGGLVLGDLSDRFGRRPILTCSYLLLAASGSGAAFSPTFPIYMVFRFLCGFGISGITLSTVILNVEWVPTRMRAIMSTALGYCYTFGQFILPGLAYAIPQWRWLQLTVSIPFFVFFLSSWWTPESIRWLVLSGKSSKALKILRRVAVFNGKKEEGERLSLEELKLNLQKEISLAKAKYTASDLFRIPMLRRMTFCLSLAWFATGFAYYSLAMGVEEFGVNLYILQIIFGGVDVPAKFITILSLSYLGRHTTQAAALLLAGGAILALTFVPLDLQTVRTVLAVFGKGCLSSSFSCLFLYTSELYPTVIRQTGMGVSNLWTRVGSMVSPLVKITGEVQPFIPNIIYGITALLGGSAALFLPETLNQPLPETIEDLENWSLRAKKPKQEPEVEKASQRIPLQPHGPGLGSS

C[C@H](CCOc1cccc(CC(=O)O)c1)N(Cc1cccc(C(F)(F)F)c1Cl)CC(c1ccccc1)c1ccccc1 [2-[3-[(3R)-3-[[2-chloro-3-(trifluoromethyl)phenyl]methyl-(2,2-diphenylethyl)amino]butoxy]phenyl]acetic acid]
ApoE gene expression induction [1]: up to 40 fold
inhibition at 50 µM [2]: < 50%
metabolism by CYP3A4 [3]: metabolized predominantly
inhibition at 50 µM [4]: < 50%
inhibition at 5 µM [5]: 55%
substrate for CYP2J2 [6]: possibly
Decreased white blood cell count (All grades), AE/Cycle % [7, 11]: 67%
Neutropenia (All grades), AE/Cycle % [7, 11]: 67%
Decreased white blood cell count (All grades), number of AEs ([7]; Regimen 1 (Full): 80 mg twice per day daily + docetaxel 35 mg/m^2, 3 subjects, 3 cycles): 2
Neutropenia (All grades), number of AEs ([7]; Regimen 1 (Full): 80 mg twice per day daily + docetaxel 35 mg/m^2 days 1, 8, 15 of 28-day cycle, 3 subjects, 3 cycles): 2
Decreased white blood cell count (All grades), number of AEs ([7]; Regimen 2 (Reduced): 80 mg twice per day 5 days then 2 day rest + docetaxel 28 mg/m^2, 7 subjects, 20 cycles): 4
Decreased white blood cell count (All grades), AE/Cycle % [7, 12]: 20%
Neutropenia (All grades), AE/Cycle % [7, 12]: 5%
Neutropenia (All grades), number of AEs ([7]; Regimen 2 (Reduced): 80 mg twice per day 5 days then 2 day rest + docetaxel 28 mg/m^2 days 1, 8, 15, 7 subjects, 20 cycles): 1
adverse event in one Regimen 2 subject ([7]; one subject: docetaxel 35 mg/m^2 day 1 and 80 mg twice per day first seven days, then reduced schedule): grade 1 white blood cell decrease
mean tumor volume ([8]; Group 03: 50 mg/kg, 0.9% saline, 0 mg/kg cisplatin, day 0): 86.36
mean tumor volume ([8]; Group 03: 50 mg/kg, 0.9% saline, 0 mg/kg cisplatin, day 3): 98.82
mean tumor volume ([8]; Group 03: 50 mg/kg, 0.9% saline, 0 mg/kg cisplatin, day 6): 125.97
mean tumor volume ([8]; Group 03: 50 mg/kg, 0.9% saline, 0 mg/kg cisplatin, day 9): 232.26
mean tumor volume ([8]; Group 03: 50 mg/kg, 0.9% saline, 0 mg/kg cisplatin, day 12): 354.70
mean tumor volume ([8]; Group 03: 50 mg/kg, 0.9% saline, 0 mg/kg cisplatin, day 15): 507.62
mean tumor volume ([8]; Group 03: 50 mg/kg, 0.9% saline, 0 mg/kg cisplatin, day 19): 1053.57
mean tumor volume ([8]; Group 03: 50 mg/kg, 0.9% saline, 0 mg/kg cisplatin, day 22): 1151.02
mean tumor volume ([8]; Group 04: 50 mg/kg twice per day daily + 2 mg/kg cisplatin, day 0, in mm³ (unit assumed)): 86.71
mean tumor volume ([8]; Group 04: 50 mg/kg twice per day daily + 2 mg/kg cisplatin, day 3): 94.50
mean tumor volume ([8]; Group 04: 50 mg/kg twice per day daily + 2 mg/kg cisplatin, day 6): 111.80
mean tumor volume ([8]; Group 04: 50 mg/kg twice per day daily + 2 mg/kg cisplatin, day 9, in mm³ (unit assumed)): 214.76
mean tumor volume ([8]; Group 04: 50 mg/kg twice per day daily + 2 mg/kg cisplatin, day 12, in mm³ (unit assumed)): 315.64
mean tumor volume ([8]; Group 04: 50 mg/kg twice per day daily + 2 mg/kg cisplatin, day 15, in mm³ (unit assumed)): 315.55
mean tumor volume ([8]; Group 04: 50 mg/kg twice per day daily + 2 mg/kg cisplatin, day 19): 748.19
mean tumor volume ([8]; Group 04: 50 mg/kg twice per day daily + 2 mg/kg cisplatin, day 22): 875.67
mean tumor volume ([8]; Group 05: 50 mg/kg twice per day five days then two days without + 2 mg/kg cisplatin, day 0, in mm³ (unit assumed)): 86.32
mean tumor volume ([8]; Group 05: 50 mg/kg twice per day five days then two days without + 2 mg/kg cisplatin, day 3): 97.27
mean tumor volume ([8]; Group 05: 50 mg/kg twice per day five days then two days without + 2 mg/kg cisplatin, day 6): 129.15
mean tumor volume ([8]; Group 05: 50 mg/kg twice per day five days then two days without + 2 mg/kg cisplatin, day 9, in mm³ (unit assumed)): 212.99
mean tumor volume ([8]; Group 05: 50 mg/kg twice per day five days then two days without + 2 mg/kg cisplatin, day 12, in mm³ (unit assumed)): 334.58
mean tumor volume ([8]; Group 05: 50 mg/kg twice per day five days then two days without + 2 mg/kg cisplatin, day 15, in mm³ (unit assumed)): 345.20
mean tumor volume ([8]; Group 05: 50 mg/kg twice per day five days then two days without + 2 mg/kg cisplatin, day 19): 680.16
mean tumor volume ([8]; Group 05: 50 mg/kg twice per day five days then two days without + 2 mg/kg cisplatin, day 22): 830.27
neurobehavioral FOB or respiratory evaluations [9]: no adverse effects were noted
growth of the xenograft [10]: significantly inhibited growth of the xenograft
